This data set is described as follows: UV absorption in ethanol. The data set is classed as physicochemical. As to conditions: for E1% / εmax: at λmax.

`CC1(C)OC(=O)C(=Cc2ccc(OC[Si](C)(C)C)cc2)C(=O)O1` [Example 6, 2,2-dimethyl-5-[4-(trimethylsilanylmethoxy)benzylidene]-1,3-dioxane-4,6-dione]: the λmax result is “λmax = 370 nm,”, the E1% entry was “E1% = 756” and the εmax result is on record as “εmax = 25 230,”.

Regarding `COC(=O)C(=Cc1ccc(OC[Si](C)(C)C)cc1)C(=O)OC` [Example 1, dimethyl 2-(4-trimethylsilanylmethoxy)benzylidenemalonate], the λmax result is recorded as “λmax = 317 nm,”, the E1% entry was “E1% = 840” and the εmax result is on record as “εmax = 27 085,”. In addition, under “listed as Example 2”, the E1% entry is on record as “E1% = 820” and the εmax entry is “εmax = 26 440,”.

Turning to `COc1ccc(C=C(C(=O)OC[Si](C)(C)C)C(=O)OC[Si](C)(C)C)cc1` [Example 13, di(methyltrimethylsilanyl) 2-(4-methoxybenzylidene)malonate], the λmax result is on record as “λmax = 313 nm,”, the E1% result is listed as “E1% = 653” and the εmax result is recorded as “εmax = 25 770,”.

Consider `CC(C)OC(=O)/C=C/c1ccc(OC[Si](C)(C)C)cc1` [Example 11, isopropyl 2-(4-trimethylsilanylmethoxy)cinnamate], for which the λmax result was “λmax = 310 nm,”, the E1% entry was “E1% = 711” and the εmax result is “εmax = 20 800,”.

In the case of `CCOC(=O)C(=Cc1ccc(OC[Si](C)(C)C)cc1)C(=O)OCC` [Example 3, diethyl 2-(4-trimethylsilanylmethoxy)benzylidenemalonate], the λmax entry is recorded as “λmax = 316 nm,”, the E1% entry is on record as “E1% = 750” and the εmax entry is given as “εmax = 26 290,”.

Take `CC(C)(C)COC(=O)C(=Cc1ccc(OC[Si](C)(C)C)cc1)C(=O)OCC(C)(C)C` [Example 5, dineopentyl 2-(4-trimethylsilanylmethoxy)benzylidenemalonate]: the λmax entry is “λmax = 317 nm,”, the E1% result is “E1% = 592” and the εmax entry is recorded as “εmax = 25 730,”.

For `C[Si](C)(C)COc1ccc(C=C(C(N)=O)C(N)=O)cc1` [Example 10, 2-[4-(trimethylsilanylmethoxy)benzylidene]malonamide], the λmax result is reported as “λmax = 310 nm,”, the E1% entry is “E1% = 696” and the εmax result is “εmax = 20 350,”.

As to `COC(=O)C(=Cc1ccc(OC[Si](C)(C)COc2ccc(C=C(C(=O)OC)C(=O)OC)cc2)cc1)C(=O)OC` [Example 9, dimethyl 2-(4-{[({4-[3-methoxy-2-(methoxycarbonyl)-3-oxoprop-1-enyl]phenoxy}methyl)(dimethyl)silyl]methoxy}benzylidene)malonate], the λmax entry is “λmax = 316 nm,”, the E1% entry is given as “E1% = 903” and the εmax entry is “εmax = 50 270,”.

Regarding `CCCCC(CC)COC(=O)C(=Cc1ccc(OC[Si](C)(C)C)c(OC)c1)C(=O)OCC(CC)CCCC` (centres unmarked) [Example 7, bis(2-ethylhexyl) 2-[3-methoxy-4-(trimethylsilanylmethoxy)benzylidene]malonate], the λmax entry is “λmax = 331 nm,”, the E1% entry is on record as “E1% = 331” and the εmax result is recorded as “εmax = 18 170,”.

Take `CC(C)COC(=O)C(=Cc1ccc(OC[Si](C)(C)C)cc1)C(=O)OCC(C)C` [Example 4, diisobutyl 2-(4-trimethylsilanylmethoxy)benzylidenemalonate]: the λmax entry was “λmax = 316 nm,”, the E1% result is “E1% = 663” and the εmax entry is on record as “εmax = 26 960,”.

For the origin of these results see patent publication US7354571B2, “Photoprotective compositions comprising methyltrialkylsilanes containing a cinnamate, cinnamamide, benzalmalonamide or benzalmalonate function” (L'Oreal, priority 2003, dated 2008).
